Reference: patent EP0451299B1, “MAGNETOCONTROLLABLE CARRIER WITH PHYSIOLOGICALLY ACTIVE SUBSTANCE AND METHOD FOR MAKING SAID CARRIER” (KHOLODOV, Leonid Efimovich, priority 1989, dated 1991)

Tests used:
[1] = system: carcinosarcome de Walker, sarcome S-45 ou sarcome M-1; type: in vivo, rats; settings: for régression complète de la tumeur / durée de vie, augmentation par rapport au groupe témoin (sans antibiotiques): ordinary solution i.v., no carrier: daunorubicyne 2 mg/kg/jour for 5 days, carminomicyne 3 x 0,4 mg/kg at 120 h intervals; for durée de vie, augmentation par rapport au groupe témoin (sans antibiotiques): mean; for examens histologiques de divers tissus, surtout du tissu hépatique / hémopoïèse: rat, in vivo, iv
From the text: Dans les essais effectués, le support selon l'invention était porteur d'une préparation anticancéreuse : daunorubicyne, doxorubicyne ou carminomicyne; teneur en fer : 56 à 64 % en masse, le reste étant du carbone; teneur en antibiotique daunorubicyne, doxorubicyne ou carminomycine adsorbé : 2 à 2,5 % en masse.
L'action anticancéreuse a été établie chez des rats et comparée à celle des microsphères connues portant lesdits antibiotiques (taille moyenne des microsphères: 0,2 à 0,5 »m; enveloppe en albumine dénaturée), ainsi qu'à celle de ces médicaments anticancéreux sans support à commande magnétique. Les sujets expérimentaux étaient des rats d'une masse allant de 180 à 220 g. On a réinoculé aux rats (au milieu de la queue) une des […] couches des tumeurs réinoculables des rats; carcinosarcome de Walker, sarcome S-45 ou sarcome M-1 (40 rats pour chaque souche). Le traitement des animaux a commencé lorsque le volume de la teneur avait 1000 mm³.
Le support selon l'invention contenant de la daunorubicyne ou de la carminomicyne a été injecté en une seule fois lentement dans la veine caudale des rats, dose de 40 mg (0,8 mg en calculant en antibiotique, soit 4 mg/kg), sous forme d'une suspension en 1 ml de solution de gélatinol à 8 % pour injections. Dans le cas de la doxorubicyne la dose a été de 12 mg/kg (dose de support : 96 mg en calculant en antibiotique. Avant l'injection, un aimant permanent de samarium-cobalt (6000 Oe) a été fixé sur la queue au niveau de la tumeur. La localisation du support à antibiotique selon l'invention dans le vaisseau au niveau de la tumeur a été contrôlée à l'aide de radiogrammes.
Les microsphères albumineuses ont été injectées en une seule fois, comme décrit ci-dessus, dans une dose de 4 mg/kg (en calculant en daunorubicyne ou en carminomicyne). Les antibiotiques (sans support à commande magnétique) ont été injectés comme suit : la daunorubicyne a été injectée dans la veine caudale des rats avec une dose de 2 mg/kg/jour en solution de gélatinol à 8 % pour des injections pendant 5 jours (une injection par jour); carminomicyne : 0,4 mg/kg 3 fois avec des intervalles de 120 heures; doxorubicyne : en une seule fois avec une dose de 12 mg/kg. Dans le groupe témoin des animaux atteints de tumeur on a injecté dans la veine, 1 ml de solution de gélatinol à 8 % pour injections.

[2] = system: oedème provoqué par le dextrane; experiment: Anti-oedema activity, dextran-induced tail oedema (plethysmometer); type: in vivo, rats; settings: ordinary solution i.v. 20 mg/kg; 1 hour after injection
From the text: On a essayé l'activité anti-oedémique du support, selon l'invention, contenant une préparation antihistaminique (la diphénylhydramine). Le support selon l'invention se composait de 56 à 63 % en masse de fer et de carbone pour le reste; la teneur en diphénylhydramine adsorbée était de 3 % en masse.
Des essais comparatifs de l'activitié anti-oedémique ont été effectués en la comparant à celle de la diphénylhydramine injectée sous forme de solution ordinaire.
Les sujets des essais étaient 30 rats mâles de la population Vistar d'un poids allant de 180 à 220 g. Pour obtenir un oedème expérimental, on a injecté par voie subplantaire au milieu de la queue de 10 rats, 0,1 ml de solution aqueuse de dextrane à 4 %. Un aimant permanent de samarium-cobalt (6000 Oe) a été fixé à cet endroit et on a injecté aussitôt lentement dans la veine caudale 20 mg de support, selon l'invention, contenant 0,6 mg de diphénylhydramine en 0,7 ml de solution de gélatinol à 8 % pour injections (dose moyenne en calculant en diphénylhydramine : 3 mg/kg). La localisation de la dispersion dans le canal vasculaire a été contrôlée par radiographie. Chez 10 rats on a injecté de la même façon la solution de dextrane et on a injecté aussitôt dans la veine caudale la solution de diphénylhydramine (dose : 20 mg/kg, soit en moyenne 5 mg par rat) en 0,7 ml de solution de gélatinol à 8 % pour injections. […]

## CC(=O)[C@]1(O)Cc2c(O)c3c(c(O)c2[C@@H](O[C@H]2C[C@H](N)[C@H](O)[C@H](C)O2)C1)C(=O)c1c(O)cccc1C3=O [carminomicyne]
[1]
  régression complète de la tumeur: en aucun cas
  durée de vie, augmentation par rapport au groupe témoin (sans antibiotiques): 15-30%
  examens histologiques de divers tissus, surtout du tissu hépatique: altérations cytotoxiques graves
  hémopoïèse: oppression de l'hémopoïèse

## COc1cccc2c1C(=O)c1c(O)c3c(c(O)c1C2=O)C[C@@](O)(C(C)=O)C[C@@H]3O[C@H]1C[C@H](N)[C@H](O)[C@H](C)O1 [daunorubicyne]
[1]
  régression complète de la tumeur: en aucun cas
  durée de vie, augmentation par rapport au groupe témoin (sans antibiotiques): 15-30%
  examens histologiques de divers tissus, surtout du tissu hépatique: altérations cytotoxiques graves
  hémopoïèse: oppression de l'hémopoïèse

## CN(C)CCOC(c1ccccc1)c1ccccc1 [diphénylhydramine]
[2]
  augmentation du volume de la queue: 1025±41 mm³
  augmentation du volume de la queue plus faible que dans le groupe témoin: 33±2%
